{
  "source": "patent US9173923B2",
  "about": "“Modulating innate immune cell activity by lunasin and selected cytokines” (Indiana University Research & Technology Corporation, priority 2011, dated 2015)",
  "key": {"[1]": {"system": "peripheral blood mononuclear cells (PBMCs); CD3 negative and CD56 positive NK cell populations", "assay": "Intracellular cytokine staining of IFNγ in stimulated PBMCs of normal controls (flow cytometry)", "assay_type": "cell-based, human", "conditions": "1 day", "experimental": "(§1) FIG. 1 IFNγ production by primary NK cells following stimulation. Human primary NK cells were isolated from peripheral blood mononuclear cells (PBMCs) of normal controls using positive selection with CD56 magnetic beads (Miltenyi Biotec Auburn. CA). […] At the last 6 hrs of stimulation, golgistop (monensin) was added to block the secretion of IFNγ. Stimulated PBMCs were surface stained with FITC-conjugated CD3 and PE-congugated CD56 monoclonal antibodies (BD), washed, fixed, and permeabilized. After washing, cells were incubated with APC-conjugated anti IFNγ monoclonal antibody. Expression of IFNγ was evaluated on 5000 events of gated CD3 negative and CD56 positive NK cell populations. The % of NK populations producing IFNγ is labeled at the upper right quadrant of the dot plot. (B) IFNγ production in the supernatants. […] The cell pellets from (B) were analyzed for gene expression using qPCR with Taqman Assay primers. […]\nFollowing 1 day of stimulation, distinct cell populations that respond to stimulation were evaluated using intracellular cytokine staining for IFNγ production. […]\nAliquots of PBMCs isolated from healthy volunteer donors were cryopreserved in liquid nitrogen for the following assays. […] Expression of IFNγ was evaluated on 5000 events of gated CD3 negative and CD56 positive NK cell populations. […] The cell pellets were analyzed for gene expression using qPCR with Taqman Assay primers. […]"}, "human primary NK cells": {"system": "human primary NK cells", "assay": "IFNγ production in supernatants of purified NK cells (ELISA)", "assay_type": "cell-based", "conditions": "1 day", "experimental": "as §1\nFIG. 7 Dose-dependent effects of lunasin on IFNγ production, Human NK cells isolated as described in FIG. 1 were stimulated with IL-12 at 1 or 10 ng/ml in the absence (A) or presence (B) of various concentrations of lunasin. One day following stimulation, The production of IFNg in the supernatants was determined using ELISA. […]\nOne day following stimulation. The production of IFNg in the supernatants was determined using ELISA. […]"}},
  "data": [
    {"substance": "lunasin", "values": [
      {"measurement": "IFNγ intracellular staining by cell population (NK, CD4 and CD8 T)", "setting": "[1]", "value": "NK but not CD4 or CD8 T populations respond"},
      {"measurement": "production of IFNγ in the supernatants", "setting": "human primary NK cells", "value": "moderate effects"}
    ]}
  ]
}
